Assay results published in patent publication US20090000631A1, “Smoking articles and method for incorporating salts of lanthanide metals for reducing TPM cytotoxicity and targeted constituents in tobacco smoke” (Philip Morris USA Inc., priority 2007, published 2009).

Experiments:
[1] = test system: TPM mutagenicity; experiment: TPM mutagenicity, Ames assays; assay type: cell-based; conditions: for Mutagenicity: change of TPM mutagenicity, tobacco treated with acetate salt alone, FTC, 3rd and 4th puffs; for mutagenicity of the mainstream smoke (in words): mainstream smoke TPM of treated tobacco
Excerpt: (§1) Under FTC conditions, the 3rd and 4th puffs of the mainstream TPM are collected. The relative phenolic and PAH contents are obtained by GC/MS methods. The TPM cytotoxicity data is obtained using the Neutral Red Uptake, while mutagenicity data is obtained using Ames assays.
(§2) Under FTC conditions, the 3rd and 4th puffs of the mainstream TPM are collected. The relative phenolic and PAH contents are obtained by GC/MS methods. The TPM cytotoxicity and mutagenicity data are obtained using Neutral Red Uptake and Ames assays, respectively.

[2] = Relative phenolic and PAH contents of mainstream TPM by GC/MS (FTC smoking, 3rd and 4th puffs); conditions: change of relative content in mainstream TPM, tobacco treated with acetate salt alone
Excerpt: as §1, §2

[3] = test system: TPM cytotoxicity; experiment: TPM cytotoxicity, Neutral Red Uptake; assay type: cell-based; conditions: change of TPM cytotoxicity; tobacco treated with acetate salt alone; FTC, 3rd and 4th puffs
Excerpt: as §1, §2

Row | Structure (SMILES) | Mutagenicity [1] | HQ [2] | Naphthalene [2] | catechol [2] | resorcinol [2] | Cytotoxicity [3] | mutagenicity of the mainstream smoke (in words) [1]
1 | CC(=O)[O-].CC(=O)[O-].CC(=O)[O-].O.[Ce+3] [7.4% Ce(OAc)3•H2O, Ce(OAc)3•H2O] | — (No significant change (absolute change <20%)) | −23% | −47% | −54% | — (No significant change (absolute change <20%)) | — (No significant change (absolute change <20%)) | 
2 | CC(=O)[O-].CC(=O)[O-].CC(=O)[O-].O.[Eu+3] [8% Eu(OAc)3•H2O, Eu(OAc)3•H2O] | −21% | −39% | −54% | −48% | −33% | — (No significant change (absolute change <20%)) | reduced
3 | CC(=O)[O-].CC(=O)[O-].CC(=O)[O-].[La+3] [8% La(OAc)3•xH2O (x ≦ 2), La(OAc)3•xH2O] | −46% | −60% | −51% | −41% | −56% | −25% | reduced
4 | CC(=O)[O-].CC(=O)[O-].CC(=O)[O-].O.[Lu+3] [8.2% Lu(OAc)3•H2O, Lu(OAc)3•H2O] | — (No significant change (absolute change <20%)) | −49% | −33% | −33% | −39% | — (No significant change (absolute change <20%)) | reduced
